Active and inactive are the calls of the source. The calls are words filed in the database; no cut-off is given here.
Columns and labels:
[1] = target: Histone-lysine N-methyltransferase, H3 lysine-79 specific (Homo sapiens) (UniProt Q8TEK3); experiment: Inhibition of DOT1L (unknown origin) using [methyl-3H]SAM and biotinylated nucleosome PRC2 and H3K27Me3 activator peptide up to 80 uM by [3H]methyl group incorporation assay
[2] = target: Histone-lysine N-methyltransferase EZH2 (Homo sapiens) (UniProt Q15910); experiment: Inhibition of EZH2 (unknown origin) using [methyl-3H]SAM and biotinylated nucleosome PRC2 and H3K27Me3 activator peptide up to 80 uM by [3H]methyl group incorporation assay
[3] = target: DNA (cytosine-5)-methyltransferase 1 (Homo sapiens) (UniProt P26358); experiment: Inhibition of human DNMT1 using [methyl-3H]SAM and biotinylated hemimethylated DNA duplex at 100 uM by [3H]methyl group incorporation assay
[4] = test system: MDA-MB-231; experiment: Inhibition of DNMT in human MDA-MB-231 cells assessed as reduction in methylation level at 200 uM by luminometric methylation assay; format: cell-based
[5] = test system: MDA-MB-231; experiment: Inhibition of DNMT in human MDA-MB-231 cells assessed as reduction in methylation level at 100 uM by luminometric methylation assay; format: cell-based
[6] = test system: MDA-MB-231; experiment: Toxicity against human MDA-MB-231 cells; format: cell-based
[7] = target: T1, DNA (cytosine-5)-methyltransferase 3A (Homo sapiens, UniProt Q9Y6K1); experiment: Inhibition of human DNMT3A catalytic domain (623 to 912 amino acids) at 10 uM after 1 hr by fluorescence assay
[8] = target: T1, DNA (cytosine-5)-methyltransferase 3A; experiment: Inhibition of human DNMT3A catalytic domain (623 to 912 amino acids) at 100 uM after 1 hr by fluorescence assay
[9] = test system: MDA-MB-231; experiment: Inhibition of DNMT in human MDA-MB-231 cells assessed as reduction in methylation level at 1 uM by luminometric methylation assay; format: cell-based
[10] = target: DNA (cytosine-5)-methyltransferase 1 (Homo sapiens) (UniProt P26358); experiment: Inhibition of human DNMT1 using [methyl-3H]SAM and biotinylated hemimethylated DNA duplex at 50 to 200 uM by [3H]methyl group incorporation assay
[11] = target: T1, DNA (cytosine-5)-methyltransferase 3A; experiment: Inhibition of human DNMT3A catalytic domain (623 to 912 amino acids) after 1 hr by fluorescence assay

Sequence of Histone-lysine N-methyltransferase, H3 lysine-79 specific (Homo sapiens) (Q8TEK3 whole entry, looked up): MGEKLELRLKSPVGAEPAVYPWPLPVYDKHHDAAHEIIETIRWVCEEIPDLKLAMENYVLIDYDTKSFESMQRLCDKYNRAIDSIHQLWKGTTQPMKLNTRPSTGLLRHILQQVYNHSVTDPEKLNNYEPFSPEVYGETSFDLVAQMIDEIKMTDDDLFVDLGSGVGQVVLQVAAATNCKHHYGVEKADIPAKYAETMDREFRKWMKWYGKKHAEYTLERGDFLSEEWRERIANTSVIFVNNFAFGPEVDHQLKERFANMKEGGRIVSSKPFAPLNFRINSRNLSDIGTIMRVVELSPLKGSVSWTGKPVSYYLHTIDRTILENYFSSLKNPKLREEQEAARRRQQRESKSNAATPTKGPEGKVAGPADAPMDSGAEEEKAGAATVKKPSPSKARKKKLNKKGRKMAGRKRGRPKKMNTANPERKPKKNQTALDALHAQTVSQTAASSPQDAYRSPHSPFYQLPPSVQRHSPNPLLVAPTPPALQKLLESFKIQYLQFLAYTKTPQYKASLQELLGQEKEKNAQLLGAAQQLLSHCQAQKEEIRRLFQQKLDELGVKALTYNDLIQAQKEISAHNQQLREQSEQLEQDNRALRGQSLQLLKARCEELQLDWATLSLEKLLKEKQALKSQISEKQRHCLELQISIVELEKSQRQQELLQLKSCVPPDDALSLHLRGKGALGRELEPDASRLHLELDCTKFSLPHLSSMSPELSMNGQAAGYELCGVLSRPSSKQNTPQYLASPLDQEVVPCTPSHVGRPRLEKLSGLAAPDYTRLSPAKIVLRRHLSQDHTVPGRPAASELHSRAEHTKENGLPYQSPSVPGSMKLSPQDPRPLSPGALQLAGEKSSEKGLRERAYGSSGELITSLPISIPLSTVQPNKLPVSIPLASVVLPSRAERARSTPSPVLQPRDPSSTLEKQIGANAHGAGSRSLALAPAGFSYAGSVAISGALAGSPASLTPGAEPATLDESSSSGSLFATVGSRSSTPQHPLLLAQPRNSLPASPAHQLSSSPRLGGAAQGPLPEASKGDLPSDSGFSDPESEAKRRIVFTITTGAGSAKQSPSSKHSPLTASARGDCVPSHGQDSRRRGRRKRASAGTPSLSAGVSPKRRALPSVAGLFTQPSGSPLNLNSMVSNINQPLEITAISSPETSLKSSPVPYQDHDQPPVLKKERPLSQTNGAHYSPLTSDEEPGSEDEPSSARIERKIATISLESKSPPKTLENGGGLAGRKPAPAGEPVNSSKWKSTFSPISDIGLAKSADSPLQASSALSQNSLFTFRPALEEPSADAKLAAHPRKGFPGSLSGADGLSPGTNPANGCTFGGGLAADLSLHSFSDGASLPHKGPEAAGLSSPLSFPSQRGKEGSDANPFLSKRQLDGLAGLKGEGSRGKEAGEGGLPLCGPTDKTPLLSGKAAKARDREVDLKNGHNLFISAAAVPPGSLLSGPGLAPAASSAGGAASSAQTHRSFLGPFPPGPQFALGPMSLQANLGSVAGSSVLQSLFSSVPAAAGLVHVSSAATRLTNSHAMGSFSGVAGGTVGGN
Sequence of DNA (cytosine-5)-methyltransferase 1 (Homo sapiens) (P26358 whole entry, the tested form may be a part): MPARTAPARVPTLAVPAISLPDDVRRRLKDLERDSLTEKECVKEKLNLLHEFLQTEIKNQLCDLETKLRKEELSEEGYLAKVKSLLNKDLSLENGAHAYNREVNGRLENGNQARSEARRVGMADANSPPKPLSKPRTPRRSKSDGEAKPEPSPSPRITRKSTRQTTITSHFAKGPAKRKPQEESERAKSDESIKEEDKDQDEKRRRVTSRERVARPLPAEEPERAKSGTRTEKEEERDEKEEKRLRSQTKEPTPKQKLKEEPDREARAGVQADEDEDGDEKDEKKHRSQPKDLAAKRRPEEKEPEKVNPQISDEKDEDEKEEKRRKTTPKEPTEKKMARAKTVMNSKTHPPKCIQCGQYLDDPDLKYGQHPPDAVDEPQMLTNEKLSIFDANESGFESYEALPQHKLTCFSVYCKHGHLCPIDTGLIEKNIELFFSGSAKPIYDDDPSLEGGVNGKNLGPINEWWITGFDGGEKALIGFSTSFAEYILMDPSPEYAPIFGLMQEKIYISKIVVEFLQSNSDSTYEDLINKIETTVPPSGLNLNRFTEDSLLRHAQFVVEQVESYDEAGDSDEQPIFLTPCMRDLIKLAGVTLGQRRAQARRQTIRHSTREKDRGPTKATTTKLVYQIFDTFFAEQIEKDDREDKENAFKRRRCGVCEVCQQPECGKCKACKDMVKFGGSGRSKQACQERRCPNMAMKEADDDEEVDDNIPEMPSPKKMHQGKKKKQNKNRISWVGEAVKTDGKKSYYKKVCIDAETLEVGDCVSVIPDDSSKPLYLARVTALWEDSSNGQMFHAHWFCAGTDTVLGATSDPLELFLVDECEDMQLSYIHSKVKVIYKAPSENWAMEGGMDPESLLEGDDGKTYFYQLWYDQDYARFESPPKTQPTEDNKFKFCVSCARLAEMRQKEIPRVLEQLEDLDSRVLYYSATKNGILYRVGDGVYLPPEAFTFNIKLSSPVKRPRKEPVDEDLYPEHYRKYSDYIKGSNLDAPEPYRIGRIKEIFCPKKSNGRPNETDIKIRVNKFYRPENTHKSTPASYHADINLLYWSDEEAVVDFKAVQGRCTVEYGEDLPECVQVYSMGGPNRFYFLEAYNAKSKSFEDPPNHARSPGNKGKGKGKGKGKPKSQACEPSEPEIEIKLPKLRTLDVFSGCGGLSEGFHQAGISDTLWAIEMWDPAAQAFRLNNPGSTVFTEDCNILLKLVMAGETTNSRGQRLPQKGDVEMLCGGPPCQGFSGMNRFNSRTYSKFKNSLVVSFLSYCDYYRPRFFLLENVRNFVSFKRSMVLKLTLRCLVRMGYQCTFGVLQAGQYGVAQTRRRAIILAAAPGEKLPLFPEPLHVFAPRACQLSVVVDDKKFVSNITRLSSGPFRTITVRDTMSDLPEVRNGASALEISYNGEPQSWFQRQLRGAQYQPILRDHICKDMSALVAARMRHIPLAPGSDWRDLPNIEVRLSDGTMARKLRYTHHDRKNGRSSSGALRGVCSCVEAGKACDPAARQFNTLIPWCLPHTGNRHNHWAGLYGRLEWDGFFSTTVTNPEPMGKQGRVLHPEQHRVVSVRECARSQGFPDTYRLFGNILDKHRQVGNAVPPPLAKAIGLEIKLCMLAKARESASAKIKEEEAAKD
Sequence of Histone-lysine N-methyltransferase EZH2 (Homo sapiens) (Q15910 whole entry, looked up): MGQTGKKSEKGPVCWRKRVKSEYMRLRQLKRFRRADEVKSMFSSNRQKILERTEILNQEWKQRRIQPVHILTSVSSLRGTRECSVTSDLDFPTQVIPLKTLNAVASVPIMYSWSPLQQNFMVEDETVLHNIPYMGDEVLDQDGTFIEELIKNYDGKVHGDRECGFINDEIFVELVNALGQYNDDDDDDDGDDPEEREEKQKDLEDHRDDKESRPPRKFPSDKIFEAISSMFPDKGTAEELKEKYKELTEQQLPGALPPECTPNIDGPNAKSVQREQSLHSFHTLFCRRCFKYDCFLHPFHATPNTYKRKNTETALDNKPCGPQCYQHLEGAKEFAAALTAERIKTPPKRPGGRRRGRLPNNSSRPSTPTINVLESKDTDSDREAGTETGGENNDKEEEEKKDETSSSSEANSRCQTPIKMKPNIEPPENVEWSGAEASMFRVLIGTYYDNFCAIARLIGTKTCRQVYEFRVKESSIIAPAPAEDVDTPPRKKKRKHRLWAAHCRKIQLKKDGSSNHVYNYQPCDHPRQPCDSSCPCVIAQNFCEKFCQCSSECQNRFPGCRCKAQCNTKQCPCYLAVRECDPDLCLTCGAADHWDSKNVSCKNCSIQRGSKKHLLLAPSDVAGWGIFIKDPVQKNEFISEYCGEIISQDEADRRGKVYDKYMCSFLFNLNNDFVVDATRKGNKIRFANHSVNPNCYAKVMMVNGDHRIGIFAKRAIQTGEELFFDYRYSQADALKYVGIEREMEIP
T1 sequence (Q9Y6K1 whole entry, looked up, the tested form may be a part): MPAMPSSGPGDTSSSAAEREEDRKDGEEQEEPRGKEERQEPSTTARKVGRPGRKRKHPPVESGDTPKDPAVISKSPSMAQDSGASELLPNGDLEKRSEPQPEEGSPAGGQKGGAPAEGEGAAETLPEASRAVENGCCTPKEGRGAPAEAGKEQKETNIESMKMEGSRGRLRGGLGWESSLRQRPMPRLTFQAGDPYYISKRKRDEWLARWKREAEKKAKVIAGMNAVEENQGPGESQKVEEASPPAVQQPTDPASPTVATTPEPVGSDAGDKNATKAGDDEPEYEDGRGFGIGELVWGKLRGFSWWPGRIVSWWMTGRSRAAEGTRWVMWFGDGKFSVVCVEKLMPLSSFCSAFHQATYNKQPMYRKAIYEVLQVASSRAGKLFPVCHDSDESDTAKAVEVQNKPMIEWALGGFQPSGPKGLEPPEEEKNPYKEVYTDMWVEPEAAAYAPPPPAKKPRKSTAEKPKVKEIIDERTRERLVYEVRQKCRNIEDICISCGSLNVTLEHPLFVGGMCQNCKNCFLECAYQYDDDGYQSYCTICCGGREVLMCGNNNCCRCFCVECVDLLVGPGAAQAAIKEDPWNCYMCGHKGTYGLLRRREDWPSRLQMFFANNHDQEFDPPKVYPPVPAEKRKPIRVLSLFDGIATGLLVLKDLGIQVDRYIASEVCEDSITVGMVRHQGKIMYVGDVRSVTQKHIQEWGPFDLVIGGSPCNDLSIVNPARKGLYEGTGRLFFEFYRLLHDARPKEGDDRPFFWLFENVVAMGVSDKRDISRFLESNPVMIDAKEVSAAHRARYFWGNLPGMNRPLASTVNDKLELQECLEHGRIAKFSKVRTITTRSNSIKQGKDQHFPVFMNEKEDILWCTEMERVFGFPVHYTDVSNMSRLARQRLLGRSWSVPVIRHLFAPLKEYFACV

Row | inhibition [1] | inhibition [2] | inhibition [3] | Compound | other results
1 | inactive | inactive | < 20% | COc1ccc(Cl)cc1C(=O)NCCc1ccc(CCC(N)=O)cc1 | 
2 | inactive | inactive | < 20% | COc1ccc(Cl)cc1C(=O)Nc1ccc(CCC(=O)O)cc1 | inhibition [7]: > 13%; inhibition [8]: > 60%
3 | inactive | inactive | < 20% | COc1ccc(Cl)cc1C(=O)NCc1ccc(CCC(=O)O)cc1 | inhibition [7]: > 13%; inhibition [8]: > 60%
4 | inactive | inactive | < 20% | COc1ccc(Cl)cc1C(=O)NCCc1ccc(C(=O)O)cc1 | 
5 | inactive | inactive | < 20% | COc1ccc(Cl)cc1C(=O)N(C)CCc1ccc(CCC(=O)O)cc1 | 
6 | inactive | inactive | 2.9% | COc1ccc(Cl)cc1C(=O)NCCc1ccc(CCC(=O)O)cc1 | inhibition [7]: inactive; inhibition [8]: inactive; inhibition [10]: inactive
7 | inactive | inactive | < 20% | COc1ccc(Cl)cc1C(=O)NCCc1ccc(CC(=O)O)cc1 | 
8 | inactive | inactive | < 20% | CNC(=O)CCc1ccc(CCNC(=O)c2cc(Cl)ccc2OC)cc1 | 
9 | inactive | inactive | < 20% | COc1ccc(Cl)cc1C(=O)NCCc1ccc(CC(C)C(=O)O)cc1 (stereo not drawn) | 
10 | inactive | inactive | < 20% | CCc1ccc(CCNC(=O)c2cc(Cl)ccc2OC)cc1 | 

Continued, molecule first:

Row | Compound | inhibition [1] | inhibition [2] | inhibition [3] | other results
11 | COc1ccc(Cl)cc1C(=O)NCCc1ccc(CCC(=O)N(C)C)cc1 | inactive | inactive | < 20% | 
12 | COc1ccc(Cl)cc1C(=O)N[C@@H](Cc1ccc(OCC(=O)O)cc1)C(=O)O | inactive | inactive | < 20% | inhibition [4]: Active; inhibition [5]: inactive; Activity [6]: Non-toxic; inhibition [7]: > 13%; inhibition [8]: > 60%
13 | COc1ccc(Cl)cc1C(=O)NCCc1ccc(/C=C/C(=O)O)cc1 | inactive | inactive | < 20% | 
14 | O=C(O)CCc1ccc(CCNC(=O)c2ccccc2F)cc1 | inactive | inactive | < 20% | 
15 | COc1ccc(Cl)cc1C(=O)NCCc1ccc(OCC(=O)O)cc1 | inactive | inactive | 15% | inhibition [4]: inactive; inhibition [5]: inactive; Activity [6]: Non-toxic; inhibition [7]: > 13%; inhibition [8]: > 60%
16 | COc1ccc(Cl)cc1C(=O)NCCc1ccc(C(C)CC(=O)O)cc1 (stereo not drawn) | inactive | inactive | < 20% | 
17 | COc1ccc(Cl)cc1NC(=O)CCc1ccc(CCC(=O)O)cc1 | inactive | inactive | < 20% | 
18 | COc1cccc(C(=O)NCCc2ccc(CCC(=O)O)cc2)c1 | inactive | inactive | < 20% | 
19 | COc1ccc(Cl)cc1C(=O)NCCc1ccc(CCCO)cc1 | inactive | inactive | < 20% | 
20 | O=C(O)CCc1ccc(CCNC(=O)c2ccccc2Br)cc1 | inactive | inactive | < 20% | 
21 | O=C(O)CCc1ccc(CCNC(=O)c2ccc([N+](=O)[O-])cc2)cc1 | inactive | inactive | 14% | Activity [6]: Toxic; inhibition [7]: > 13%; inhibition [8]: > 60%
22 | COc1ccc(Cl)cc1C(=O)NCCc1ccc(CCC(=O)N2CCOCC2)cc1 | inactive | inactive | < 20% | 
23 | O=C(O)CCc1ccc(CCNC(=O)c2cccc(Cl)c2)cc1 | inactive | inactive | < 20% | 
24 | O=C(O)CCc1ccc(CCNC(=O)c2cc(C(F)(F)F)ccc2Cl)cc1 | inactive | inactive | < 20% | Activity [6]: Toxic; inhibition [7]: inactive; inhibition [8]: > 60%
25 | O=C(O)CCc1ccc(CCNC(=O)c2cc(Cl)ccc2F)cc1 | inactive | inactive | < 20% | 
26 | Nc1ncn([C@@H]2O[C@H](CO)[C@@H](O)[C@H]2O)c(=O)n1 |  |  |  | inhibition [9]: Active
27 | COc1ccc(Cl)cc1C(=O)NCCc1ccccc1 | inactive | inactive | < 20% | 
28 | COc1ccc(Cl)cc1C(=O)NCCc1ccc(O)cc1 | inactive | inactive | 16% | Activity [6]: Toxic; EC50 [11]: 36 µM; inhibition [7]: > 13%; inhibition [8]: > 60%
29 | O=C(O)CCc1ccc(CCNC(=O)c2cccnc2)cc1 | inactive | inactive | < 20% | 
30 | COc1ccc(Cl)cc1C(=O)NCCc1cccc(CCC(=O)O)c1 | inactive | inactive | < 20% | 
31 | COc1ccc(Cl)cc1CNCCc1ccc(CCC(=O)O)cc1 | inactive | inactive | < 20% | 

Reference: ChEMBL document CHEMBL3132825, “Preparation of phenylethylbenzamide derivatives as modulators of DNMT3 activity” (Medchemcomm, 2013)
